Test results: patent publication US11614423B2, “Transformed response potentiometric titrations” (UNIVERSITEIT ANTWERPEN, priority 2014, dated 2023)

Assays:
[1] = Transformed response potentiometric titration of cocaine (ligand) with titrants; format: binding; conditions: for Ka: 1 mM MES buffer pH 7.0, mean of n electrodes
[2] = system: Cocaine Binding Aptamer (CBA); test: Transformed response potentiometric titration of different ligands with CBA as titrant (cross-reactivity); conditions: for Ka: Post-EP method, 10^−5 M ligand in 1 mM MES buffer pH 7, CBA as titrant

Row | Molecule | Ka ([1]; Post-EP (PEP) method) [M⁻¹] | Ka [2] [M⁻¹] | further results
1 | 25-mer-DNA: randomly chosen non-specific oligonucleotide, likely SEQ ID NO: 2 (DNA AAAATATCATCTTTGGTGTTTCCTA; DNA, backbone and methylation of C not given here) | 24000 | – | specific interaction with cocaine (in words) ([1]; comparison of titration curves and Ka values): little or no specific interaction
2 | Clc1ccc([B-](c2ccc(Cl)cc2)(c2ccc(Cl)cc2)c2ccc(Cl)cc2)cc1 [TCPB, tetrakis (4-chlorophenyl)borate] | 9e+09 | – | Ka ([1]; Equivalence Point (EP) method): 3e+09 M⁻¹
3 | CN(Cc1cc(Br)cc(Br)c1N)C1CCCCC1 [bromhexine] | – | 570000 | –
4 | CCN(CC)CC(=O)Nc1c(C)cccc1C [lidocaine] | – | 100000 | –
5 | CN1C[C@H](CNC(=O)OCc2ccccc2)C[C@@H]2c3cccc4c3c(cn4C)C[C@H]21 [metergoline] | – | 3.3e+06 | interaction with CBA (in words) ([2]; cross-reactivity compared with cocaine): better interaction with metergoline than with cocaine
6 | CBA: Cocaine Binding Aptamer, sequence SEQ ID NO: 1, 43 bases (DNA ATCTCGGGACGACAGGATTTTCCTCAATGAAGTGGGTCGTCCC; DNA, backbone not given here) | – | – | Kd ([1]; Post-EP method, n=6 electrodes): 1.1 µM
7 | CAPBA: Chloramphenicol Binding Aptamer, sequence SEQ ID NO: 3 (nucleic acid, DNA, backbone and methylation of C not given here) DNA: AGCAGCACAGAGGTCAGATGACTTCAGTGAGTTGTCCCACGGTCGGCGAGTCGGTGGTAGCCTATGCGTGCTACCGTGAA | 47000 | – | –
